# Assay results from patent publication US20220089609A1, “SUBSTITUTED QUINAZOLINONE DERIVATIVES AND THEIR USE AS POSITIVE ALLOSTERIC MODULATORS OF MGLUR4” (DOMAIN THERAPEUTICS, priority 2018, published 2022).
# Structures can show the parent of a compound that is named as a salt.
# Key:
# human mGluR4 (hmGluR4) = biological target: T1, human mGluR4 (hmGluR4) (Homo sapiens, UniProt Q14833); assay: Calcium assay EC50 determination, positive allosteric modulator activity on hmGluR4 transiently over-expressed in HEK-293 cells; assay type: cell-based; conditions: PAM mode with EC20 glutamate; hmGluR4 in HEK-293 cells; intracellular calcium (Fluo4AM); read-out: mGluR4 positive allosteric modulator activity, half maximal effective concentration (EC50)
# T1 construct: expressed in transfected cells; host or cells: HEK-293 cells, transient co-transfection by electroporation
# T1 sequence (Q14833 33-912): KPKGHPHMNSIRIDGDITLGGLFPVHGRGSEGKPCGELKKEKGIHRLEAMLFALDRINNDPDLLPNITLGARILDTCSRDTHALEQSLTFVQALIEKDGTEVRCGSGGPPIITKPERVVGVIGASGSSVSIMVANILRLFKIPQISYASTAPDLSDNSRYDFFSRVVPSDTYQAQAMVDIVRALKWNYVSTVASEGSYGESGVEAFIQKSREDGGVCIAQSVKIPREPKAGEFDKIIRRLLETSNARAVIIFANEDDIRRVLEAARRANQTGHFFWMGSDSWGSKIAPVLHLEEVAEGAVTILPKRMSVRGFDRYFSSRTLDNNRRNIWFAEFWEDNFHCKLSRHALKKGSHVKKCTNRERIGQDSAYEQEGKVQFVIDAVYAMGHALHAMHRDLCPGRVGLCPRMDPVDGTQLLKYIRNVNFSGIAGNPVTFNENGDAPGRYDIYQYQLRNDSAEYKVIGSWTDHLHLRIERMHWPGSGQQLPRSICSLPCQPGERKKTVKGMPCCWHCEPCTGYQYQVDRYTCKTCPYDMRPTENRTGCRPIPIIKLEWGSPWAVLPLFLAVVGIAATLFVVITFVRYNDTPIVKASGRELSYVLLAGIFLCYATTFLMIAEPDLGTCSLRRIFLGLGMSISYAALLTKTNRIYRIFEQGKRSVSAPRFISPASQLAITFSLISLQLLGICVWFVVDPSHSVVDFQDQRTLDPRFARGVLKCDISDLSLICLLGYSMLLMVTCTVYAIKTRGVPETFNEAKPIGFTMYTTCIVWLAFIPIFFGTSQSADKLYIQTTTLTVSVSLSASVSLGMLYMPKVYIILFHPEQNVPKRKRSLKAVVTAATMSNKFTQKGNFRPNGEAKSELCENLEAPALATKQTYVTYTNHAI
# In short: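 HEK-293 cells transiently co-transfected with hmGluR4, chimeric G protein and glutamate transporters; Fluo4AM calcium read (ex 485/em 525 nm) on FLIPR Tetra. Compound alone 10 min for agonism, then EC20 glutamate with 3 min recording for PAM activity, versus buffer or EC20 glutamate basal.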
# [1] = tested on: haloperidol-induced catalepsy; assay: Haloperidol-induced catalepsy model in the mouse (bar test); assay type: in vivo; conditions: 1 mg/kg per os 60 minutes after haloperidol (1 mg/kg i.p.), measured between 135 and 270 min after haloperidol injection
# Experimental: This method, which detects anti-cataleptic activity, follows those well-known by one skilled in the art and described in the literature (e.g. Pires et al., Braz J Med and Biol Res 38, 1867-1872, 2005; Shiozaki et al., Psychopharmacology 147, 90-95, 1999). Catalepsy is a symptom of Parkinson's disease, and is characterized by muscular rigidity and fixity of posture.
# The procedure applied to the compounds of the invention is as follows:
# Catalepsy is assessed using the bar test in mice submitted to acute administration of haloperidol (1 mg/kg, intra-peritoneal or i.p.). Mice (male RjOrl:SWISS mice, weighing 30-35 g at the beginning of the experiment) were placed (6 to 9 in each group) in Plexiglas cages, and injected with haloperidol (1 mg/kg i.p.). The catalepsy response of one mouse was measured when the animal maintained an imposed posture with both forelimbs placed on a horizontal 0.9 cm diameter wire bar suspended 4 cm above a platform. The end point of catalepsy was considered to occur when both forelimbs were removed from the bar, the mouse climbed onto the bar or if the animal moved its head in an exploratory manner. A cut-off time of 180 seconds was applied. The degree of catalepsy was scored 45 minutes after haloperidol administration and continued at 45 minutes intervals for a total of 270 minutes. Between determinations, the animals were returned to their home cages.
# Compounds 81, 100, 114, 119, 143 and 144 were evaluated at 1 mg/kg, administered per os, 60 minutes after haloperidol, and compared with a vehicle control group.
# The anti-cataleptic effect of the compound was compared to vehicle-treated group using ANOVA test followed by the Dunnett's test.
SMILES,EC50 (human mGluR4 (hmGluR4)) [nM],anti-cataleptic effect (mean time of latency spent on the bar) compared to vehicle-treated group [1],melting point [°C]
"Cc1cc(OC2CCC(=O)N(C)C2)cc2c(=O)[nH]c(-c3cc4ccsc4cn3)nc12 (centres unmarked) [Compound 81, 8-Methyl-6-(1-methyl-6-oxo-piperidin-3-yloxy)-2-thieno[2,3-c]pyridin-5-yl-3H-quinazolin-4-one]",≤ 100,significant anti-cataleptic effect,221 to 225
"Cc1cc(CCN2CCOCC2)cc2c(=O)[nH]c(-c3cc4ccsc4cn3)nc12 [Compound 100, 8-methyl-6-(2-morpholin-4-yl-ethyl)-2-thieno[2,3-c]pyridin-5-yl-3H-quinazolin-4-one hydrochloride]",≤ 100,significant anti-cataleptic effect,–
"Cc1cc(CN2CCOCC2)cc2c(=O)[nH]c(-c3cc4ccsc4cn3)nc12 [Compound 114, 8-methyl-6-(morpholinomethyl)-2-thieno[2,3-c]pyridin-5-yl-3H-quinazolin-4-one hydrochloride]",≤ 100,significant anti-cataleptic effect,–
"Cc1cc(CN2CCOCC2)cc2c(=O)[nH]c(-c3cc4sccc4cn3)nc12.Cl [Compound 119, 8-Methyl-6-(morpholinomethyl)-2-(thieno[3,2-c]pyridin-6-yl)quinazolin-4(3H)-one hydrochloride]",≤ 100,significant anti-cataleptic effect,> 250
"Cc1cc(CCN2CCN(C)C(=O)C2)cc2c(=O)[nH]c(-c3cc4sccc4cn3)nc12.Cl [Compound 143, 8-Methyl-6-[2-(4-methyl-3-oxo-piperazin-1-yl)ethyl]-2-thieno[3,2-c]pyridin-6-yl-3H-quinazolin-4-one hydrochloride]",≤ 100,significant anti-cataleptic effect,> 250
"Cc1cc(CCN2CCN(C)C(=O)C2)cc2c(=O)[nH]c(-c3cc(C(F)(F)F)ccn3)nc12.Cl [Compound 144, 8-Methyl-6-[2-(4-methyl-3-oxo-piperazin-1-yl)ethyl]-2-[4-(trifluoromethyl)-2-pyridyl]-3H-quinazolin-4-one hydrochloride]",100 to 1000,–,148 to 150
"Cc1cc(CCN2CC3(COC3)C2)cc2c(=O)[nH]c(-c3cc4ccsc4cn3)nc12 [Compound 145, 8-Methyl-6-[2-(2-oxa-6-azaspiro[3.3]heptan-6-yl)ethyl]-2-thieno[2,3-c]pyridin-5-yl-3H-quinazolin-4-one]",1000 to 10000,–,220 to 225
"Cc1cc(CCN2CC3(COC3)C2)cc2c(=O)[nH]c(-c3cc4sccc4cn3)nc12 [Compound 146, 8-Methyl-6-[2-(2-oxa-6-azaspiro[3.3]heptan-6-yl)ethyl]-2-thieno[3,2-c]pyridin-6-yl-3H-quinazolin-4-one]",100 to 1000,–,160 to 200
"COCCN(C)CCc1cc(C)c2nc(-c3cc4sccc4cn3)[nH]c(=O)c2c1.Cl [Compound 148, 6-(2-((2-Methoxyethyl)(methyl)amino)ethyl)-8-methyl-2-(thieno[3,2-c]pyridin-6-yl)quinazolin-4(3H)-one hydrochloride]",1000 to 10000,–,149 to 162
"Cc1cc(CCN2CCS(=O)(=O)CC2)cc2c(=O)[nH]c(-c3cc4sccc4cn3)nc12 [Compound 149, 6-(2-(1,1-Dioxidothiomorpholino)ethyl)-8-methyl-2-(thieno[3,2-c]pyridin-6-yl)quinazolin-4(3H)-one]",≤ 100,–,200 to 212
"Cc1cc(CN2CCS(=O)(=O)CC2)cc2c(=O)[nH]c(-c3cc4sccc4cn3)nc12 [Compound 150, 6-[(1,1-Dioxo-1,4-thiazinan-4-yl)methyl]-8-methyl-2-thieno[3,2-c]pyridin-6-yl-3H-quinazolin-4-one]",≤ 100,–,245 to 250
"COCCN(C)Cc1cc(C)c2nc(-c3cc4sccc4cn3)[nH]c(=O)c2c1.Cl [Compound 151, 6-(((2-Methoxyethyl)(methyl)amino)methyl)-8-methyl-2-(thieno[3,2-c]pyridin-6-yl)quinazolin-4(3H)-one hydrochloride]",100 to 1000,–,205 to 215
"Cc1cc(CN2CCC3(CC2)COC3)cc2c(=O)[nH]c(-c3cc4sccc4cn3)nc12 [Compound 155, 8-Methyl-6-(2-oxa-7-azaspiro[3.5]nonan-7-ylmethyl)-2-thieno[3,2-c]pyridin-6-yl-3H-quinazolin-4-one]",≤ 100,–,> 250
"COc1cc(CCN2CCOCC2)cc2c(=O)[nH]c(-c3cc(C(F)(F)F)ccn3)nc12.Cl [Compound 158, 8-Methoxy-6-(2-morpholinoethyl)-2-(4-(trifluoromethyl)pyridin-2-yl)quinazolin-4(3H)-one hydrochloride]",1000 to 10000,–,> 250
"Cl.O=c1[nH]c(-c2cc(C(F)(F)F)ccn2)nc2c(Br)cc(CCN3CCOCC3)cc12 [Compound 159, 8-Bromo-6-(2-morpholinoethyl)-2-(4-(trifluoromethyl)pyridin-2-yl)quinazolin-4(3H)-one hydrochloride]",≤ 100,–,> 250
"Cc1cc(CCN2CCOC(C)(C)C2)cc2c(=O)[nH]c(-c3cc(C(F)(F)F)ccn3)nc12.Cl [Compound 160, 6-(2-(2,2-dimethylmorpholino)ethyl)-8-methyl-2-(4-(trifluoromethyl)pyridin-2-yl)quinazolin-4(3H)-one hydrochloride]",≤ 100,–,106 to 116
"Cc1cc(CN2CCN(C)C(=O)C2)cc2c(=O)[nH]c(-c3cc(C(F)(F)F)ccn3)nc12.Cl [Compound 161, 8-Methyl-6-((4-methyl-3-oxopiperazin-1-yl)methyl)-2-(4-(trifluoromethyl)pyridin-2-yl)quinazolin-4(3H)-one hydrochloride]",100 to 1000,–,> 250
"Cc1cc(CCN2CC3CCC(C2)O3)cc2c(=O)[nH]c(-c3cc(C(F)(F)F)ccn3)nc12.Cl [Compound 162, 6-(2-(8-Oxa-3-azabicyclo[3.2.1]octan-3-yl)ethyl)-8-methyl-2-(4-(trifluoromethyl)pyridin-2-yl)quinazolin-4(3H)-one hydrochloride]",≤ 100,–,160 to 170
"Cc1cc(CCN2C3CCC2COC3)cc2c(=O)[nH]c(-c3cc(C(F)(F)F)ccn3)nc12.Cl [Compound 163, 6-(2-(3-oxa-8-azabicyclo[3.2.1]octan-8-yl)ethyl)-8-methyl-2-(4-(trifluoromethyl)pyridin-2-yl)quinazolin-4(3H)-one hydrochloride]",≤ 100,–,200 to 250
"Cc1cc(CCN2CCC(O)CC2)cc2c(=O)[nH]c(-c3cc(C(F)(F)F)ccn3)nc12.Cl [Compound 164, 6-(2-(4-hydroxypiperidin-1-yl)ethyl)-8-methyl-2-(4-(trifluoromethyl)pyridin-2-yl)quinazolin-4(3H)-one hydrochloride]",100 to 1000,–,115 to 125
"Cc1cc(CCN2CCC(F)(F)CC2)cc2c(=O)[nH]c(-c3cc(C(F)(F)F)ccn3)nc12.Cl [Compound 165, 6-(2-(4,4-difluoropiperidin-1-yl)ethyl)-8-methyl-2-(4-(trifluoromethyl)pyridin-2-yl)quinazolin-4(3H)-one hydrochloride]",100 to 1000,–,240 to 250
"COC1CCN(CCc2cc(C)c3nc(-c4cc(C(F)(F)F)ccn4)[nH]c(=O)c3c2)CC1.Cl [Compound 166, 6-(2-(4-methoxypiperidin-1-yl)ethyl)-8-methyl-2-(4-(trifluoromethyl)pyridin-2-yl)quinazolin-4(3H)-one hydrochloride]",100 to 1000,–,> 250
